# Laboratory results published in article PMC8222254, “Self-assembly of an anion receptor with metal-dependent kinase inhibition and potent in vitro anti-cancer properties” (Nature Communications, 2021).
# “And” between values parts separate entries of the source, which are not always exact repeats. Equal entries are not always repeated.
# Columns and labels:
# Assay in all cases: Kinase inhibition screen, cell-free 33P ATP assay at 10 μM
# Format in all cases: biochemical
# [1] = target: 140 purified human kinases (Homo sapiens, UniProt P80192)
# How it was run: (§1)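 Each complex tested in duplicate at 10 μM; cell-free radiometric assay using ^33P ATP on purified enzymes. Hits mapped by HGNC symbol onto the kinome tree.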
# [2] = target: 140 purified human kinases (Homo sapiens, UniProt Q15569)
# How it was run: as §1
# [3] = target: 140 purified human kinases (Homo sapiens, UniProt P43405); settings: SYK
# How it was run: as §1
# [4] = target: 140 purified human kinases (Homo sapiens, UniProt Q7KZI7)
# How it was run: as §1
# [5] = target: T1, 140 purified human kinases (Tribolium castaneum, UniProt D6WMX4); settings: PINK
# T1 sequence (D6WMX4 6-570): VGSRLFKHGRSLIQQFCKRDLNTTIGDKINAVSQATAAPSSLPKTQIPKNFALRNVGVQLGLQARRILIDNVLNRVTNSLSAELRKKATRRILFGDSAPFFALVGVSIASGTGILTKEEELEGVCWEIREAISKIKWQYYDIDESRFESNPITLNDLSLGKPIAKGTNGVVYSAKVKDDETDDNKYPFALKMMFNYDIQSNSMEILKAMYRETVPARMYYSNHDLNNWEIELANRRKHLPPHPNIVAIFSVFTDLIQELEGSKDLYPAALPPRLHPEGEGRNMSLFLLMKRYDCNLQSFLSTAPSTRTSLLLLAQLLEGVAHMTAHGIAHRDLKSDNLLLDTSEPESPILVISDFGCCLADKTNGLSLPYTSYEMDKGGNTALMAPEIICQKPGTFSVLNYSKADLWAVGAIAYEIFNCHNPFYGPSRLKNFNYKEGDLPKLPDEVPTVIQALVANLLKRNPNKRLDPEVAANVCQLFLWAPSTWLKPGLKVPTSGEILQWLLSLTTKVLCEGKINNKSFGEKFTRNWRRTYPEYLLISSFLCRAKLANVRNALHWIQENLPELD
# How it was run: as §1
# [6] = target: T2, 140 purified human kinases (Homo sapiens, UniProt Q16832)
# T2 sequence (Q16832 22-855): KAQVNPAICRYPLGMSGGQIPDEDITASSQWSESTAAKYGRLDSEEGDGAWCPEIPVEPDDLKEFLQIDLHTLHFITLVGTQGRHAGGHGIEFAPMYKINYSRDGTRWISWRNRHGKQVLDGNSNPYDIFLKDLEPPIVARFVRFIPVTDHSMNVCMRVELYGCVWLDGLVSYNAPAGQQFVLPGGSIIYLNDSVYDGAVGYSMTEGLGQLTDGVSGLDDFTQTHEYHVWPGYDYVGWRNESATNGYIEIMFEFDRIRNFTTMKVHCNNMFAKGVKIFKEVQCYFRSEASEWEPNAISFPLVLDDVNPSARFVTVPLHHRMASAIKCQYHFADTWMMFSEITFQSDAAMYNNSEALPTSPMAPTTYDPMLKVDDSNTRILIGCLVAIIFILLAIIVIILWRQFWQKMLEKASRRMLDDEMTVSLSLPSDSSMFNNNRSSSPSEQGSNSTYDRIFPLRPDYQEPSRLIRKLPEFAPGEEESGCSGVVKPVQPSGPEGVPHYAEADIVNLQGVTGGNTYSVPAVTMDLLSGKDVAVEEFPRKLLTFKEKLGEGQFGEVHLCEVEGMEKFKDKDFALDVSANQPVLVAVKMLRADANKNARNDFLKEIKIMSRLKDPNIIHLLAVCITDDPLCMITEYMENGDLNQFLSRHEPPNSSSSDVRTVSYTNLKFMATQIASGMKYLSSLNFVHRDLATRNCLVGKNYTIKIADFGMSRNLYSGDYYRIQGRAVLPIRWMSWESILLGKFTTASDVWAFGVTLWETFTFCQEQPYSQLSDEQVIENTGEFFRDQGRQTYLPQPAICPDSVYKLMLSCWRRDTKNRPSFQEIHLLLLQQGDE
# How it was run: as §1
# [7] = target: T3, 140 purified human kinases (Homo sapiens, UniProt O00141)
# T3 sequence (O00141 1-431): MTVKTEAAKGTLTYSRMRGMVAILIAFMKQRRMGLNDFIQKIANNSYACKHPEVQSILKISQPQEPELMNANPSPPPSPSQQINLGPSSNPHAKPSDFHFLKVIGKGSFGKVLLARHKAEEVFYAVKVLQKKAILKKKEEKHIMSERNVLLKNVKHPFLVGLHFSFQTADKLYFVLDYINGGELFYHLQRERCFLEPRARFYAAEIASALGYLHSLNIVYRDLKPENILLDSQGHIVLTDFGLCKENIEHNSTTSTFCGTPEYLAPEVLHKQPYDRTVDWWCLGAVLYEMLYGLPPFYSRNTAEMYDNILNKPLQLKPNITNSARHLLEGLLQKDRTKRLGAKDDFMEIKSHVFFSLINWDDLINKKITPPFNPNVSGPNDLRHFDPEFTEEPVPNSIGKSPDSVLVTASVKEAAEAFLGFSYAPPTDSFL
# How it was run: as §1
# [8] = target: 140 purified human kinases (Homo sapiens, UniProt Q14012); settings: for % Activity inhibition Mean / % Activity inhibition Run 1 / % Activity inhibition Run 2 / % Activity remaining Run 1 / % Activity remaining Run 2: 10 µM
# How it was run: as §1
# 140 purified human kinases (Homo sapiens, UniProt Q14012), sequence (Q14012 whole entry): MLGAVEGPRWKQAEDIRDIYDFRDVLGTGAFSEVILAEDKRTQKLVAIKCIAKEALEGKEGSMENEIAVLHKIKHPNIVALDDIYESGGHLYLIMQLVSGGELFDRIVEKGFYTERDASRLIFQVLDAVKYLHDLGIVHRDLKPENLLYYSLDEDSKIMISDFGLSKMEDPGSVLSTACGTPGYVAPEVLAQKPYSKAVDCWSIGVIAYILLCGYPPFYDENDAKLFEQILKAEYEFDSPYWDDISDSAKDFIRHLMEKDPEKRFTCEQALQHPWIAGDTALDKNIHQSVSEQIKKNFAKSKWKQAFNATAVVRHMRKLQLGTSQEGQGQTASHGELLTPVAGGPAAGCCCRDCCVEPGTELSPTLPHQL
# 140 purified human kinases (Homo sapiens, UniProt Q7KZI7), sequence (Q7KZI7 whole entry): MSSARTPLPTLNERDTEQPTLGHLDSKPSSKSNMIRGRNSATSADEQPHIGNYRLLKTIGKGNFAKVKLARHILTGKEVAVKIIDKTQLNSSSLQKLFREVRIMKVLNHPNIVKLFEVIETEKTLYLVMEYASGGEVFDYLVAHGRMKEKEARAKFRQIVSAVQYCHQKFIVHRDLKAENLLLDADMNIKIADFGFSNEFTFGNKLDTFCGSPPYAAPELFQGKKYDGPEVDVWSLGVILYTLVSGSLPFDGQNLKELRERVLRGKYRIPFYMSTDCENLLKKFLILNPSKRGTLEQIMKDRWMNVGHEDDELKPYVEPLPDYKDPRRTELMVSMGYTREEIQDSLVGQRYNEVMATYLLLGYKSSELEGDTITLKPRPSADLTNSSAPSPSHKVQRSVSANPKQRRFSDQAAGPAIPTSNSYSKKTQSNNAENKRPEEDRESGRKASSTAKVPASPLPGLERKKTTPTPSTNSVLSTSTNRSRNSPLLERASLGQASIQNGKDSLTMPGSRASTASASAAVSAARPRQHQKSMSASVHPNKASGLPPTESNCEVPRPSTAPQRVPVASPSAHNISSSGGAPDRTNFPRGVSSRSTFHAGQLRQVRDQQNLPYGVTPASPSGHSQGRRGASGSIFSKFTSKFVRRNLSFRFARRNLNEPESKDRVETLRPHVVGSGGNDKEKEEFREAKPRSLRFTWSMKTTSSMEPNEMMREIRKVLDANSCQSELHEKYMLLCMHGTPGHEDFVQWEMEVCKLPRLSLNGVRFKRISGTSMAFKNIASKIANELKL
# 140 purified human kinases (Homo sapiens, UniProt Q15569), sequence (Q15569 whole entry): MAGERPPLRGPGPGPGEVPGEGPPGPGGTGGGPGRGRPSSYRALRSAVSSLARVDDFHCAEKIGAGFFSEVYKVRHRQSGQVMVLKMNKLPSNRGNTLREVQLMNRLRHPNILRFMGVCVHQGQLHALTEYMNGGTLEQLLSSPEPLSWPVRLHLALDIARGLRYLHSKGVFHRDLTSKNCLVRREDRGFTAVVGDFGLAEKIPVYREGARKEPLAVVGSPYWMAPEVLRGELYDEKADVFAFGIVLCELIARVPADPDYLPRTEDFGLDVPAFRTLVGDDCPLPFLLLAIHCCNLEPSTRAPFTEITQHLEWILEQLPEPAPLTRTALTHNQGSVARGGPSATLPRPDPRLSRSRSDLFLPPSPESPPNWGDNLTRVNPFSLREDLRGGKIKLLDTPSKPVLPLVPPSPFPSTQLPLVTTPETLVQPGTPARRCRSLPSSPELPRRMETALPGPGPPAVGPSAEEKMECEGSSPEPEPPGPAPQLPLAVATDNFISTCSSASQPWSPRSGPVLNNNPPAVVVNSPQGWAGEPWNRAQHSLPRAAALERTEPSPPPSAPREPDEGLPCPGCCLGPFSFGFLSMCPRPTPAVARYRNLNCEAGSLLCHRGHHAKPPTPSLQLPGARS
# 140 purified human kinases (Homo sapiens, UniProt P80192), sequence (P80192 whole entry): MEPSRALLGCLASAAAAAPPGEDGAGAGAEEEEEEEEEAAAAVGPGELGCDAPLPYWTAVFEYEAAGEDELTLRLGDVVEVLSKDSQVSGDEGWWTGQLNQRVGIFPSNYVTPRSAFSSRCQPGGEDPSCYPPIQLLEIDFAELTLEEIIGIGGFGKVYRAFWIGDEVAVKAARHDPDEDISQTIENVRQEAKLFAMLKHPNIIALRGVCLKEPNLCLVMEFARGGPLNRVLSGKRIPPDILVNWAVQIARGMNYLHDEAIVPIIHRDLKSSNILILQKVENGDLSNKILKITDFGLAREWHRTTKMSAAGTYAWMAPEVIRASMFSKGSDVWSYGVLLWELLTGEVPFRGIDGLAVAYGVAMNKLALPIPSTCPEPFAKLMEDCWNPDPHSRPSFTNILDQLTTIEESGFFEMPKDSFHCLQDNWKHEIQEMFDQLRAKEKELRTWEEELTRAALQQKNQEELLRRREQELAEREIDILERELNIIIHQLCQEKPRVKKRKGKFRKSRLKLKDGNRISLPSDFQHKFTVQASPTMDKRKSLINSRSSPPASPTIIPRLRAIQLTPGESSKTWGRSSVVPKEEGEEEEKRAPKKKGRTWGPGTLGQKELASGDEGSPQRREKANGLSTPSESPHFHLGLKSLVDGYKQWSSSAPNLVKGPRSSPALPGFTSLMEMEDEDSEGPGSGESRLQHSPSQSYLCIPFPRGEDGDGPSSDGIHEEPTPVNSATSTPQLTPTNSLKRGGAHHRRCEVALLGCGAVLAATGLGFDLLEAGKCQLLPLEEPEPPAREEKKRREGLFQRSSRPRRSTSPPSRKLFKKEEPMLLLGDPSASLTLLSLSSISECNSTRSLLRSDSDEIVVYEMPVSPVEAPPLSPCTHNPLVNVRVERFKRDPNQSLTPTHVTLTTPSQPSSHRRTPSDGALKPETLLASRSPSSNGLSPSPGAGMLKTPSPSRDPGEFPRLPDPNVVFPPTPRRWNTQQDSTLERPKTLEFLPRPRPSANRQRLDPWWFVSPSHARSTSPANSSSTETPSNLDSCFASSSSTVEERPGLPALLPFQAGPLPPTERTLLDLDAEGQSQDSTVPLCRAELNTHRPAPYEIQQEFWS
compound,measurement,setting,value
[Cu+2].[Cu+2].[Cu+2].c1ccc(-c2csc(NCCN(CCNc3nc(-c4ccccn4)cs3)CCNc3nc(-c4ccccn4)cs3)n2)nc1.c1ccc(-c2csc(NCCN(CCNc3nc(-c4ccccn4)cs3)CCNc3nc(-c4ccccn4)cs3)n2)nc1 [[L2Cu3]6+],% Inhibition Run 1,[1]; MLK1,83.6%
same,% Inhibition Run 2,[1]; MLK1,85.4%
same,"% Inhibition, Mean",[1]; MLK1,85%
same,mean % activity,[1]; MLK1,16%
same,% activity,"[1]; MLK1, Run 1",16.4%
same,% activity,"[1]; MLK1, Run 2",14.6%
same,% Inhibition Run 1,[2]; TESK1,16.1%
same,% Inhibition Run 2,[2]; TESK1,-16.2%
same,"% Inhibition, Mean",[2]; TESK1,-0.05%
same,mean % activity,[2]; TESK1,100%
same,% activity,"[2]; TESK1, Run 1",83.9%
same,% activity,"[2]; TESK1, Run 2",116.2%
same,% Inhibition Run 1,[3],88%
same,% Inhibition Run 2,[3],79.4%
same,"% Inhibition, Mean",[3],84%
same,mean % activity,[3],16%
same,% activity,[3]; Run 1,12%
same,% activity,[3]; Run 2,20.6%
same,% Inhibition Run 1,[4]; MARK2,29.8%
same,% Inhibition Run 2,[4]; MARK2,21.6%
same,"% Inhibition, Mean",[4]; MARK2,26%
same,mean % activity,[4]; MARK2,74%
same,% activity,"[4]; MARK2, Run 1",70.2%
same,% activity,"[4]; MARK2, Run 2",78.4%
same,% Inhibition Run 1,[5],49.3%
same,% Inhibition Run 2,[5],39.6%
same,"% Inhibition, Mean",[5],44%
same,mean % activity,[5],56%
same,% activity,[5]; Run 2,60.4%
same,% Inhibition Run 1,[6]; DDR2,21.7%
same,% Inhibition Run 2,[6]; DDR2,11.4%
same,"% Inhibition, Mean",[6]; DDR2,17%
same,mean % activity,[6]; DDR2,83%
same,% activity,"[6]; DDR2, Run 1",78.3%
same,% activity,"[6]; DDR2, Run 2",88.6%
same,% Inhibition Run 1,[7]; SGK1,85.6%
same,% Inhibition Run 2,[7]; SGK1,88.5%
same,"% Inhibition, Mean",[7]; SGK1,87%
same,mean % activity,[7]; SGK1,13%
same,% activity,"[7]; SGK1, Run 1",14.4%
same,% activity,"[7]; SGK1, Run 2",11.5%
same,% Inhibition Run 1,[8]; CAMK1,94.9%
same,% Inhibition Run 2,[8]; CAMK1,96.1%
same,"% Inhibition, Mean",[8]; CAMK1,96%
same,mean % activity,[8]; CAMK1,4.5%
same,% activity,"[8]; CAMK1, Run 1",5.1%
same,% activity,"[8]; CAMK1, Run 2",3.9%
same,% Activity inhibition Mean,[8]; CAMK1,95.5%
same,% Activity inhibition Run 1,[8]; CAMK1,94.9%
same,% Activity inhibition Run 2,[8]; CAMK1,96.1%
same,% Activity remaining Run 1,[8]; CAMK1,5.10%
same,% Activity remaining Run 2,[8]; CAMK1,3.90%
CC(=O)[O-].CC(=O)[O-].CC(=O)[O-].CC(=O)[O-].CC(=O)[O-].CC(=O)[O-].[Zn+2].[Zn+2].[Zn+2].c1ccc(-c2csc(NCCN(CCNc3nc(-c4ccccn4)cs3)CCNc3nc(-c4ccccn4)cs3)n2)nc1.c1ccc(-c2csc(NCCN(CCNc3nc(-c4ccccn4)cs3)CCNc3nc(-c4ccccn4)cs3)n2)nc1 [[L2Zn3]6+],"% Inhibition, Mean",[1]; MLK1,11%
same,mean % activity,[1]; MLK1,89%
same,% activity,"[1]; MLK1, duplicate runs",83% and 96%
same,"% Inhibition, Mean",[2]; TESK1,25%
same,"% Inhibition, Run 1 / Run 2",[2]; TESK1,34% and 17%
same,mean % activity,[2]; TESK1,75%
same,% activity,"[2]; TESK1, duplicate runs",66% and 83%
same,"% Inhibition, Mean",[3],29%
same,mean % activity,[3],71%
same,% activity,[3]; duplicate runs,58% and 84%
same,"% Inhibition, Mean",[4]; MARK2,34%
same,"% Inhibition, Run 1 / Run 2",[4]; MARK2,45% and 24%
same,mean % activity,[4]; MARK2,66%
same,% activity,"[4]; MARK2, duplicate runs",56% and 76%
same,"% Inhibition, Mean",[5],5.35%
same,"% Inhibition, Run 1 / Run 2",[5],5% and 6%
same,mean % activity,[5],95%
same,% activity,[5]; duplicate runs,95% and 94%
same,"% Inhibition, Mean",[6]; DDR2,19%
same,"% Inhibition, Run 1 / Run 2",[6]; DDR2,23% and 15%
same,mean % activity,[6]; DDR2,81%
same,% activity,"[6]; DDR2, duplicate runs",77% and 85%
same,"% Inhibition, Mean",[7]; SGK1,37%
same,"% Inhibition, Run 1 / Run 2",[7]; SGK1,43% and 32%
same,mean % activity,[7]; SGK1,63%
same,% activity,"[7]; SGK1, duplicate runs",57% and 68%
same,"% Inhibition, Mean",[8]; CAMK1,96%
same,"% Inhibition, Run 1 / Run 2",[8]; CAMK1,94% and 98%
same,mean % activity,[8]; CAMK1,3.6%
same,% Activity inhibition Mean,[8]; CAMK1,96.0%
same,% Activity inhibition Run 1,[8]; CAMK1,94%
same,% Activity inhibition Run 2,[8]; CAMK1,98%
same,% Activity remaining Run 1,[8]; CAMK1,6%
same,% Activity remaining Run 2,[8]; CAMK1,2%
same,% activity,"[8]; CAMK1, duplicate runs",5.6% and 1.6%
